Reference: patent US5096923A, “Novel squalene synthetase inhibitors” (Merck & Co., Inc., priority 1990, dated 1992)
≈ marks a conversion by molar mass, not a printed value.

Key:
Squalene Synthetase = biological target: T1, Squalene Synthetase (Rattus norvegicus, UniProt Q02769); experiment: Squalene synthetase assay (rat liver microsomes, [4-14C]farnesyl-pyrophosphate); type: biochemical; settings: 30° C., 20 minutes, read-out: Squalene Synthetase ID50
T1 construct: The livers from these rats were homogenized in 5 volumes (ml/g) of ice cold 50 mM HEPES; from tissue; host or cells: rat liver microsomes (male Charles River CD rats fed 0.1% lovastatin for 4 days)
T1 sequence (Q02769 1-416): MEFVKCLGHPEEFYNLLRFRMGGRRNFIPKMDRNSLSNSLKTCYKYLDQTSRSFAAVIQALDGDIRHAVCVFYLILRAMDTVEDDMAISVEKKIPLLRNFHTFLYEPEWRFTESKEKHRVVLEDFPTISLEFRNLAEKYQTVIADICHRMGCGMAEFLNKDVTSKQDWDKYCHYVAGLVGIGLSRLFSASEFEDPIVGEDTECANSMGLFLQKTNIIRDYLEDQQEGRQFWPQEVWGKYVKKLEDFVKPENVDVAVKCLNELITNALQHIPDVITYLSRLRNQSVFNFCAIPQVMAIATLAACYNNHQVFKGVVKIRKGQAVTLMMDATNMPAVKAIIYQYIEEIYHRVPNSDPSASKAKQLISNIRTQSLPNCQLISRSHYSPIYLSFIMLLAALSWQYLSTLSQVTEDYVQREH
Protocol: The intrinsic squalene synthetase inhibitory activity of representative compounds of this invention was measured by the standard in vitro protocol described below:
Male, Charles River CD rats (120 to 150 g) were fed a diet containing 0.1% lovastatin for 4 days. The livers from these rats were homogenized in 5 volumes (ml/g) of ice cold 50 mM HEPES (4-(2 -hydroxyethyl)-1-piperazine-ethanesulfonic acid), 5 mM EDTA(ethylenediaminetetraacetic acid) pH 7.5 with a Potter-Elvehjem type tissue grinder. The homogenate was centrifuged twice at 20,000×g for 15 minutes at 4° C., discarding the pellet each time. The supernatant was then centrifuged at 100,000×g for 1 hour at 4° C. The resulting microsomal pellet was resuspended in a volume of the above homogenizing buffer equal to one-fifth the volume of the original homogenate. This microsomal preparation has a protein concentration of about 7 mg/ml. The microsomal suspensions were stored in aliquots at -70° C. Squalene synthetase activity in these aliquots is stable for at least several months.
Prenyl transferase was purified to use in the enzymatic synthesis of radiolabelled farnesyl pyrophosphate. Prenyl transferase was assayed by the method of Rilling (Methods in Enzymology 110, 125-129 (1985)) and a unit of activity is defined as the amount of enzyme that will produce 1 μmole of farnesyl pyrophosphate per minute at 30° C. in the standard assay. […]

A. fumigatus MF4839 = experiment: Antifungal microtiter inhibitor dilution assay (filamentous fungi), A. fumigatus; type: cell-based; settings: Aspergillus fumigatus, 42 hours, 28° C., read-out: Minimum Inhibitory Concentration
Protocol: (§1) The compounds are particularly active towards filamentous fungi and yeasts including Candida albicans and Crypt neoformans. The sensitivity of filamentous fungi and yeast was determined using inhibitor dilution assays in microtiter format. The compounds were dissolved in DMSO at 2 mg/ml and serially diluted in 0.1M phosphate buffer, pH 7.0 in the microtiter dish from 100 to 0.006 μg/ml. A standardized spore suspension for testing the filamentous fungi was prepared by inoculating Antibiotic Medium #3 containing 1.5% agar with spores such that 1.5×10^3 colony forming units were added per well. The microtiter wells were filled with 50 μl of buffer containing compound and 50 μl of inoculated medium. The sensitivity of yeasts was determined by inoculating yeast nitrogen base containing 1% dextrose (YNB/G) with aliquots of an overnight yeast culture grown in yeast morphology (YM) media at 35° C. and diluting in YNB/G to yield a final concentration of 1.5-7.5×10^3 colony forming units/well. One hundred fifty μl of inoculated media was added per well. To test the sensitivity of yeast, compound was solubilized in 10 percent aqueous DMSO at 2.56 mg/ml. The compound was diluted serially in YNB/G from 128 to 0.06 μg/ml. The wells were filled with 150 μl of drug containing media. […]

A. flavus MF383 = experiment: Antifungal microtiter inhibitor dilution assay (filamentous fungi), A. flavus; type: cell-based; settings: Aspergillus flavus, 42 hours, 28° C., read-out: Minimum Inhibitory Concentration
Protocol: as §1

A. niger MF442 = experiment: Antifungal microtiter inhibitor dilution assay (filamentous fungi), A. niger; type: cell-based; settings: Aspergillus niger, 42 hours, 28° C., read-out: Minimum Inhibitory Concentration
Protocol: as §1

Fus. oxysporum MF4014 = experiment: Antifungal microtiter inhibitor dilution assay (filamentous fungi), Fus. oxysporum; type: cell-based; settings: Fusarium oxysporum, 42 hours, 28° C., read-out: Minimum Inhibitory Concentration
Protocol: as §1

Pen. italicum MF2819 = experiment: Antifungal microtiter inhibitor dilution assay (filamentous fungi), Pen. italicum; type: cell-based; settings: Penicillium italicum, 42 hours, 28° C., read-out: Minimum Inhibitory Concentration
Protocol: as §1

Coch. miyabeanus MF4626 = experiment: Antifungal microtiter inhibitor dilution assay (filamentous fungi), Coch. miyabeanus; type: cell-based; settings: Bipolaris oryzae, MF4626, 42 h, read-out: Minimum Inhibitory Concentration
Protocol: as §1

C. albicans MY1055 = experiment: Antifungal microtiter inhibitor dilution assay (yeast), C. albicans; type: cell-based; settings: Candida albicans, 24 hours, 28° C., read-out: Minimum Inhibitory Concentration
Protocol: as §1

C. tropicalis MY1012 = experiment: Antifungal microtiter inhibitor dilution assay (yeast), C. tropicalis; type: cell-based; settings: Candida tropicalis, 24 hours, 28° C., read-out: Minimum Inhibitory Concentration
Protocol: as §1

C. parapsilosis MY1010 = experiment: Antifungal microtiter inhibitor dilution assay (yeast), C. parapsilosis; type: cell-based; settings: Lodderomyces parapsilosis, 24 hours, 28° C., read-out: Minimum Inhibitory Concentration
Protocol: as §1

Crypt. neoformans MY1051 = experiment: Antifungal microtiter inhibitor dilution assay (yeast), Crypt. neoformans; type: cell-based; settings: Cryptococcus neoformans, 24 hours, 28° C., read-out: Minimum Inhibitory Concentration
Protocol: as §1

C=C(CCC12OC(C(=O)OC)C(O)(C(=O)OC)C(C(=O)OC)(O1)C(OC(=O)C=CC(C)CC(C)CC)C2O)C(OC(C)=O)C(C)Cc1ccccc1 (centres unmarked) [Compound B]
IC50 (Squalene Synthetase): 5 µM
MIC (A. fumigatus MF4839): 6.2 µg/mL (≈ 8.46 µM)
MIC (A. flavus MF383): 6.2 µg/mL (≈ 8.46 µM)
MIC (A. niger MF442): 25 µg/mL (≈ 34.1 µM)
MIC (Fus. oxysporum MF4014): > 100 µg/mL
MIC (Pen. italicum MF2819): 6.2 µg/mL (≈ 8.46 µM)
MIC (Coch. miyabeanus MF4626): 1.6 µg/mL (≈ 2.18 µM)
MIC (C. albicans MY1055): 8 µg/mL (≈ 10.9 µM)
MIC (C. tropicalis MY1012): 4 µg/mL (≈ 5.46 µM)
MIC (C. parapsilosis MY1010): 8 µg/mL (≈ 10.9 µM)
MIC (Crypt. neoformans MY1051): 1 µg/mL (≈ 1.36 µM)
